The values below come from ChEMBL document CHEMBL4421722, “Inhibitors of protein prenyltransferases” (2013).

Data set [1] in a line: Inhibition of rat recombinant geranylgeranyltransferase type I expressed in Escherichia coli assessed as reduction in geranylgeranylation of RhoA incubated for 30 mins in presence of [3H]GGPP by scintillation counting assay relative to control.
In data set [2] the test system is K562. Description: Antiproliferative activity against human K562 cells assessed as inhibition of cell proliferation incubated for 72 hrs by CCK8 assay. The settings on record: for GI50: K562, 72 h. Format: functional, cell-based. A general note: Tetrazolium dyes change colour on reduction, which living cells bring about.
The subject of data set [3] is Jurkat. Description: Antiproliferative activity against human Jurkat cells assessed as inhibition of cell proliferation incubated for 72 hrs by CCK8 assay. Type of data set: functional, cell-based.
The next data set relates to MDA-MB-231. Description: Antiproliferative activity against human MDA-MB-231 cells assessed as inhibition of cell proliferation incubated for 72 hrs by CCK8 assay. The settings on record: MDA-MB-231, 72 h. Type of data set: functional.
The test system of another data set is BT-474. Description: Antiproliferative activity against human BT474 cells assessed as inhibition of cell proliferation incubated for 72 hrs by CCK8 assay. Type of data set: functional, cell-based. Particulars: BT-474, 72 h.
The test system of a further data set is MIA PaCa-2. Kind of data set: Antiproliferative activity against human MIAPaCa2 cells assessed as inhibition of cell proliferation incubated for 72 hrs by CCK8 assay. Type of data set: functional, cell-based. Particulars: MIA PaCa-2, 72 h.
A further data set has as its system ASPC1. Kind of data set: Antiproliferative activity against human AsPC1 cells assessed as inhibition of cell proliferation incubated for 6 days by CCK8 assay. Type of data set: functional, cell-based. Particulars: ASPC1, 144 h.
The test system of data set [4] is PANC-1. Kind of data set: Antiproliferative activity against human PANC1 cells assessed as inhibition of cell proliferation incubated for 72 hrs by CCK8 assay. The settings on record: PANC-1, 72 h. Type of data set: functional, cell-based.
A further data set has as its system Capan-2. Kind of data set: Antiproliferative activity against human Capan2 cells assessed as inhibition of cell proliferation incubated for 72 hrs by CCK8 assay. Format: functional, cell-based. The settings on record: Capan-2, 72 h.
In a further data set the test system is CFPAC-1. Kind of data set: Antiproliferative activity against human CFPAC-1 cells assessed as inhibition of cell proliferation incubated for 72 hrs by CCK8 assay. Type of data set: functional, cell-based. The settings on record: CFPAC-1, 72 h.
For data set [5], the species on record is Rattus norvegicus. Kind of data set: Inhibition of rat recombinant geranylgeranyltransferase type I expressed in Escherichia coli assessed as residual enzyme activity for geranylgeranylation of K-Ras4B at 50 uM incubated for 30 mins in presence of [3H]GGPP by scintillation counting assay relative to control.
The species named for data set [6] is Rattus norvegicus. Description: Inhibition of rat recombinant geranylgeranyltransferase type I expressed in Escherichia coli assessed as residual enzyme activity for geranylgeranylation of RhoA at 50 uM incubated for 30 mins in presence of [3H]GGPP by scintillation counting assay relative to control.
For data set [7], the species on record is Rattus norvegicus. Kind of data set: Competitive inhibition of rat recombinant geranylgeranyltransferase type I expressed in Escherichia coli assessed as reduction in geranylgeranylation of RhoA incubated for 30 mins in presence of fixed level of [3H]GGPP and varying RhoA levels by scintillation counting assay relative to control.
The species entered for data set [8] is Rattus norvegicus. Description: Competitive inhibition of rat recombinant geranylgeranyltransferase type I expressed in Escherichia coli assessed as reduction in geranylgeranylation of RhoA incubated for 30 mins in presence of varying level of [3H]GGPP and fixed RhoA levels by scintillation counting assay relative to control.
The test system of data set [9] is HEK293. Kind of data set: Inhibition of geranylgeranyltransferase type I in HEK293 cells expressing Myc-HA-tagged Rheb-WT assessed as effect on unprenylated Rap1 accumulation at 3.1 to 25 uM incubated for 48 hrs by SDS-PAGE and immunoblot analysis. Format: cell-based. The settings on record: Homo sapiens. (A western blot detects proteins with antibodies after separation by electrophoresis.)

Data set [10] has as its system HEK293. Description: Inhibition of geranylgeranyltransferase type I in HEK293 cells expressing Myc-HA-tagged Rheb-CVSL assessed as effect on unprenylated Rap1 accumulation at 12.5 to 50 uM incubated for 48 hrs by SDS-PAGE and immunoblot analysis. Type of data set: cell-based. The settings on record: Homo sapiens.
The test system of data set [11] is K562. Description: Induction of cell cycle arrest in human K562 cells assessed as accumulation at G1 phase up to […] incubated for 48 hrs by flow cytometry. Type of data set: functional, cell-based. For orientation: A flow cytometer gives signals particle by particle.
The target in data set [12] is T1, Geranylgeranyl transferase type-2 (Homo sapiens) (UniProt P53611+Q92696). Kind of data set: Inhibition of RabGGTase (unknown origin) at 50000 nM using YPTI as substrate protein and [3H]geranylgeranyl pyrophosphate incubated for 20 mins by scintillation counting assay. Format: protein-complex assay.
Data set [13] has as its target Protein farnesyltransferase (Rattus norvegicus) (UniProt Q04631+Q02293). Kind of data set: Inhibition of rat recombinant FTase alpha/beta expressed in Escherichia coli at 50000 nM using K-Ras4B as a substrate as and [3H]farnesyl pyrophosphate incubated for 30 mins by scintillation counting assay.
For data set [14], the species on record is Rattus norvegicus. Description: Uncompetitive inhibition of rat recombinant geranylgeranyltransferase type I expressed in Escherichia coli assessed as reduction in geranylgeranylation of RhoA incubated for 30 mins in presence of varying level of [3H]GGPP and fixed RhoA levels by scintillation counting assay by Michaelis-Menten plot analysis.
For data set [15], the system named is HEK293. Kind of data set: Inhibition of geranylgeranyltransferase type I in HEK293 cells expressing Myc-HA-tagged Rheb-WT assessed as effect on unprenylated Rap1 accumulation at 1.25 to 10 uM incubated for 48 hrs by SDS-PAGE and immunoblot analysis. Type of data set: cell-based. The settings on record: Homo sapiens.
Data set [16] deals with HEK293. Kind of data set: Inhibition of geranylgeranyltransferase type I in HEK293 cells expressing Myc-HA-tagged Rheb-CVSL assessed as effect on unprenylated Rap1 accumulation at 5 to 10 uM incubated for 48 hrs by SDS-PAGE and immunoblot analysis. Format: cell-based. Particulars: Homo sapiens.
Another data set concerns MCF7. Kind of data set: Antiproliferative activity against human MCF7 cells assessed as inhibition of cell proliferation incubated for 6 days by CCK8 assay. Format: functional, cell-based. The settings on record: MCF7, 144 h.
Data set [17] can be described thus: Antiproliferative activity against human MCF10A cells assessed as inhibition of cell proliferation incubated for 72 hrs by CCK8 assay. Format: cell-based, MCF-10A.
The nature of data set [18]: Inhibition of rat recombinant geranylgeranyltransferase type I expressed in Escherichia coli assessed as reduction in geranylgeranylation of K-Ras4B incubated for 30 mins in presence of [3H]GGPP by scintillation counting assay.
Data set [19] deals with Jurkat. Description: Antiproliferative activity against human Jurkat cells assessed as inhibition of cell proliferation at 12.5 uM incubated for 72 hrs by CCK8 assay. Format: functional, cell-based.
Data set [20] relates to PANC-1. Description: Antiproliferative activity against human PANC1 cells assessed as inhibition of cell proliferation at 12.5 uM incubated for 72 hrs by CCK8 assay. Type of data set: functional, cell-based.
Data set [21] concerns the target T1, Geranylgeranyl transferase type-2 (Homo sapiens). Description: Inhibition of RabGGTase (unknown origin) up to 10000 nM using YPTI as substrate protein and [3H]geranylgeranyl pyrophosphate incubated for 20 mins by scintillation counting assay. Type of data set: protein-complex assay.
The test system of data set [22] is HEK293. Description: Inhibition of geranylgeranyltransferase type I in HEK293 cells expressing Myc-HA-tagged Rheb-WT assessed as effect on unprenylated Rap1 accumulation at 2.5 uM incubated for 48 hrs by SDS-PAGE and immunoblot analysis. Format: cell-based. The settings on record: Homo sapiens.

Activity calls are given as the source filed them. The rule behind the calls is not given here.

Usually IC50 stands for the concentration that inhibits the measured activity by half. One may read the GI50 as the concentration that inhibits growth by half. Regarding `Cc1ccccc1S(=O)(=O)N1[C@@H](c2ccc(Cl)c(Cl)c2)C(C(=O)N[C@@H](Cc2ccccc2)C(N)=O)=C[C@H]1C(C)(C)C`, in data set [1], the IC50 was in the range of 5.4 to 7.6 µM. The GI50 in the data set with K562 [2] lay in the range of 6.74 to 6.9 µM; in the data set with Jurkat [3], 5.62 to 6.9 µM; with MDA-MB-231, 5.54 to 12.6 µM; in the data set with BT-474, 10.6 to 10.8 µM; in the data set with MIA PaCa-2, 7.49 to 8.06 µM; in the data set on ASPC1 it was 11.5 to 12.9 µM. Further, the GI50 is 7.52 to 11.7 µM with PANC-1 [4], 8.45 to 11.3 µM in the data set with Capan-2 and 2.03 to 6.09 µM with CFPAC-1.

For the compound `CC(C)(C)[C@@H]1C=C(C(=O)N[C@@H](Cc2ccccc2)C(N)=O)[C@H](c2ccc(Br)cc2)N1S(=O)(=O)c1ccccc1Cl`, the IC50 in data set [1] fell in the range of 6 to 16 µM. In addition, the GI50 with K562 [2] fell in the range of 5.21 to 9.18 µM; in the data set with Jurkat [3], 4.74 to 8.75 µM; in the data set with MDA-MB-231 it was 4.43 to 11.3 µM; in the data set on BT-474, 9.08 to 9.9 µM; with MIA PaCa-2 it was 6.15 to 12.1 µM; in the data set on ASPC1 it was 12.2 to 16.8 µM. Besides, the GI50 in the data set on PANC-1 [4] was 9.05 to 12 µM; with Capan-2, 8.32 to 10.7 µM; with CFPAC-1, 6.16 to 6.3 µM.

For the compound `Cc1ccccc1S(=O)(=O)N1[C@@H](c2cccc(Cl)c2)C(C(=O)O)=CC[C@H]1c1ccc(Cl)cc1`, the Activity lay in the range of 14.7 to 41.7% in the data set filed under Rattus norvegicus [5] and 7.5 to 24.8% in the data set filed under Rattus norvegicus [6]. The IC50 in [1] fell in the range of 0.31 to 0.313 µM. In addition, the inhibition entry in the data set with K562 [2], in the data set listed under Rattus norvegicus [7], in the data set with HEK293 [9], with HEK293 [10] and in the data set filed under Rattus norvegicus [14] was “Active” each time. The GI50 in the data set with Jurkat [3] was determined as 20 µM. For the same compound, the inhibition result (in the data set listed under Rattus norvegicus [8]; in data set [12]; in data set [13]) was “inactive” each time. The result in the data set on K562 [11] was Active.

On to `COC(=O)[C@H](Cc1ccccc1)NCC(=O)OCC1=C[C@@H](C(C)(C)C)N(S(=O)(=O)c2ccccc2C)[C@H]1c1ccc(Cl)cc1`, for which the inhibition entry in the data set on HEK293 [15] and with HEK293 [16] was “Active” each time.

Regarding `Cc1ccccc1S(=O)(=O)N1[C@@H](c2ccc(Cl)cc2)C(C(=O)N[C@@H](Cc2ccccc2)C(N)=O)=C[C@H]1C(C)CC(C)(C)C` (some centres undefined), the IC50 in data set [1] was 10 to 50 µM. The GI50 was in the range of 5.95 to 6.3 µM with K562 [2]; 6.4 to 9.76 µM in the data set with Jurkat [3]; 3.1 to 4.71 µM in the data set with MCF7; 10.1 to 10.8 µM with BT-474; 6.7 to 7.17 µM in the data set with MIA PaCa-2; 8.61 to 11.4 µM with ASPC1. Further, the GI50 is 8.6 to 8.85 µM with PANC-1 [4] and 7.5 to 10.5 µM in the data set on Capan-2. Besides, the GI50 at 72 h in data set [17] is 9.16 to 11.3 µM.

On to `Cc1ccccc1S(=O)(=O)N1[C@@H](c2ccc(Cl)cc2)C(C(=O)O)=C[C@H]1C(C)(C)C` (relative stereo), for which the Activity in the data set filed under Rattus norvegicus [5] turned out to be 13.3%; in the data set listed under Rattus norvegicus [6], 5.3%. For the same compound, the IC50 was 2 µM in [18] and 0.5 to 2.5 µM in data set [1]. Moreover, the inhibition result (in the data set listed under Rattus norvegicus [7]; in the data set with HEK293 [9]; in the data set with HEK293 [10]; in [21]; in the data set listed under Rattus norvegicus [14]) was “Active” each time. In addition, the inhibition entry (in the data set listed under Rattus norvegicus [8]; in data set [13]; in the data set on HEK293 [22]) was “inactive” throughout. Moreover, the “growth inhibition (GI)” value with Jurkat [19] and in the data set on PANC-1 [20] was “Active” in each case.
